We go through one compound from patent publication US12268666B2, “Spray-dried dispersions, formulations, and polymorphs of (S)-5-amino-3-(4-((5-fluoro-2-methoxybenzamido)methyl)phenyl)-1-(1,1,1-trifluoropropan-2-yl)-1H-pyrazole-4-carboxamide” (Loxo Oncology, Inc., priority 2018, dated 2025).

Like-named read-outs stand apart in the source and are kept apart here.

Data set [1] has as its target T1, BTK (Homo sapiens, UniProt Q06187).
T1 construct: host or cells: Ramos RA1
In words: BTK Y223 autophosphorylation in Ramos RA1 cells. Type of data set: cell-based. The conditions noted are these: anti-human IgM stimulation. The protocol:
(§1) Ramos RA1 cells, obtained from ATCC (CRL-1596), are grown in RPMI 1640+10% fetal bovine serum (FBS) at 37° C. in a CO2 incubator. […] Nine hundred μL of cell/well are added to 24 well plates and 100 uL of 10× stocks of inhibitor are added. The 10× compound of Formula I stocks are prepared in 1% DMSO, by doing a 1:3 dilution series with final concentrations in the wells ranging between 900 nM to 0.41 nM. […] All samples are tested in triplicate. After 2 hours (starvation and dosing) sodium orthovanadate is added to a final concentration of 200 μM and incubated for 30 more min. Cells are then stimulated with 4 uL of goat F(ab′)2 anti-human IgM (Jackson ImmunoResearch #109-006-129) for 5 min at room temperature, spun down, resuspended in 100 uL of […]™ M (Sigma #C2978) containing 5× Halt phosphatase and protease inhibitor cocktails (Pierce #78442), and stored at −80° C. Lysates are quantified by BCA (Pierce #23225) and analyzed by Simple Western (Protein Simple) with the following antibodies: anti-phospho-BTK (Y223) (Cell Signaling Technologies (CST) #5082), anti-BTK (CST #8547), anti-phospho-PLCγ2 (Y1217) (CST 3871), anti-PLCγ2 (CST 3872), and anti-GAPDH (GAPDH refers to glyceraldehyde 3-phosphate dehydrogenase) (Novus #MAB5718-SP). […] Results are analyzed with Compass software (Protein Simple), and IC50 values are calculated on GraphPad Prism 7.04 software.

Data set [2] has as its target BTK C481S (Homo sapiens, UniProt Q06187, C481S). Briefly: Y223 autophosphorylation in HEK293 cells stably expressing BTK C481S. Type of data set: cell-based. Further details: expressed in transfected cells; host or cells: HEK293. The note with it: C481S mutant, 2 hr treatment, signal normalized to total BTK. Here is the method: HEK293 cell lines stably expressing BTK wild type and the mutant form C481S are generated using standard transfection methods. For assessment of cellular inhibition potency, cells are grown in DMEM +10% Fetal Bovine Serum (FBS)+1 μg/ml puromycin (complete growth media) at 37° C. in a CO2 incubator. Cells are harvested according to standard protocols using TRYPLE™ (Gibco #12604-013), counted, resuspended in complete growth media, and added to 6 well assay plates at 4×10 ^5 cell/well in 2 mL. Plates are incubated overnight at 37° C. with 5% CO2. […] All samples are tested in triplicate. Following compound incubation, the growth medium is discarded, cells are washed with DPBS (1×) (Gibco #14190-144) and lysed in 1 mL of […]™ M (Sigma #C2978) containing 1× Halt phosphatase and protease inhibitor cocktails (Pierce #78442). Plates are placed on ice for 1 hr with gentle agitation and stored at −80° C. overnight. The next day, cell lysates are placed in 1.5 mL tubes and cleared by centrifugation at 16,000×g for 10 min at 4° C. Supernatants are quantified by BCA (Pierce #23225) and stored at −80° C. Samples are analyzed by Simple Western (Protein Simple) with anti-phospho-BTK (Y223) (Cell Signaling Technologies (CST) #5082) and anti-BTK (CST #8547) (FIGS. 10A and 10B). β-actin is used as a loading control and detected by regular Western blot with an anti-3-actin antibody (CST #4970).

Data set [3] addresses 371 kinases. In words: Kinase selectivity assay (Reaction Biology Wild-Type Kinase Profiler). It counts as biochemical. The note with it: 1.0 μM compound; ATP close to Km for each enzyme. Here is the method: (§2) Each assay is performed at an ATP concentration close to the Km for each enzyme. […] After co-incubation with a serial dilution of the compound of Formula I, the quantity of ^33P incorporated into a peptide substrate is measured and the data analyzed using standard curve fitting methods.

The subject of data set [4] is PLCγ2. Briefly: PLCγ2 Y1217 phosphorylation in Ramos RA1 cells. It counts as cell-based. The note with it: anti-human IgM stimulation. Here is the method:
as §1

For data set [5], the target named is T2, full-length wild type (WT) human BTK (Homo sapiens, UniProt Q06187).
T2 construct: against full-length wild type (WT) and mutant human BTK enzymes
Briefly: BTK activity assay, [33P]-ATP incorporation into poly-EY. Type of data set: biochemical. Here is the method: The activity of the compound of Formula I against full-length wild type (WT) and mutant human BTK enzymes is determined by monitoring the incorporation [^33P]-PO4 from [γ-^33P]-ATP into poly-glutamic acid-tyrosine (poly-EY) peptide substrate. The reaction mixtures each contained polyhistidine-tagged BTK enzyme, poly-EY and BTK inhibitor at the appropriate concentrations. The reaction mixtures are incubated for 20 minutes at room temperature after which [[γ-^33P]-ATP (radiochemical concentration 10 μCi/μL) at 10 μM or the ATP Km concentration for each enzyme is added. After 2 hours of incubation at room temperature, the radiolabeled peptide substrate is captured, and incorporated radioactivity is quantified.
as §2

A short description of data set [6]: Kinetic solubility in FaSSGF, FaSSIF and FeSSIF media. It counts as physicochemical. The note with it: kinetic from dmso stock. The protocol:
The solubility of the compound of Formula I is also tested under conditions that simulate gut fluids (Fasted State Simulated Intestinal Fluid [FaSSIF], Fed State Simulated Intestinal Fluid [FeSSIF], and Fasted State Simulated Gastric Fluid [FaSSGF]) as shown in Table 9.

Data set [7] concerns TMD8 cells. Briefly: BTK-dependent proliferation of TMD8 diffuse large B-cell lymphoma cell line. The conditions noted are these: Homo sapiens, from AUC of real-time confluence curves, 0.1 to 1,000 nM. Type of data set: cell-based. Here is the method:
The TMD8 cells are maintained in RPMI 1640 (Gibco Catalog #31870-025) with 10% Fetal Calf Serum (FCS), 1% GLUTAMAX™, Non-Essential Amino-Acids and 1 mM sodium pyruvate. The cells are harvested by centrifugation (5 min, 1200 rpm) prior to reaching a concentration of 3×10^6 cells/mL. The medium is removed and cell pellet resuspended in fresh medium before counting with a Cellometer (Nexcelom). TMD8 cells are seeded at 5×10^4 cells/mL in 20 mL of culture medium in a T75 culture flask and held at 37° C. with 5% CO2.
The anti-proliferation activity of the compound of Formula I with TMD8 cells is accessed by the addition of increasing concentrations of inhibitor from 0.1 to 1,000 nM. A dose-dependent inhibition is observed by real-time assessment of TMD8 confluence. Individual curves for each compound of Formula I concentration are represented in the FIG. 12A.

[8] abbreviates: FaSSGF (Fasted State Simulated Gastric Fluid), fassgf or other biorelevant, pH 1.6 FaSSGF.
Setting [9] is: FaSSIF (Fasted State Simulated Intestinal Fluid), pH 6.5 FaSSIF.
[10] abbreviates: FeSSIF (Fed State Simulated Intestinal Fluid), pH 6.5 FeSSIF.

T2 sequence (Q06187 whole entry): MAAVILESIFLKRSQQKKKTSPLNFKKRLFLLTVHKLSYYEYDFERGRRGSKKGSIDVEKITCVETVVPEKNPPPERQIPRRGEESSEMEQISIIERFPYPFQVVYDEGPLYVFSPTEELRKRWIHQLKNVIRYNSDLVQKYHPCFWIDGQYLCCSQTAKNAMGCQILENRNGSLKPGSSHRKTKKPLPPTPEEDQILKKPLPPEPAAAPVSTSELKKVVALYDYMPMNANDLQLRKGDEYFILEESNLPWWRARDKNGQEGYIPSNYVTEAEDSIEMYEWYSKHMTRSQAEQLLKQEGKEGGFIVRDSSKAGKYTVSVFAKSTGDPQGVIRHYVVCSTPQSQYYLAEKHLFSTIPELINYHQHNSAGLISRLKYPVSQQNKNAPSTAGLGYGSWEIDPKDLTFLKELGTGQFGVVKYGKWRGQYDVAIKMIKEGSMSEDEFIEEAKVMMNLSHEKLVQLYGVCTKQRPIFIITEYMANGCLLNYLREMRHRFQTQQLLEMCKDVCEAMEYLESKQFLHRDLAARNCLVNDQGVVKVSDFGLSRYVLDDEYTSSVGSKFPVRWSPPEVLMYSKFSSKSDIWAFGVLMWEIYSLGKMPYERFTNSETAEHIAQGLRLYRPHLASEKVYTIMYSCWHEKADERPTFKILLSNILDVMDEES
T1 sequence (Q06187 whole entry): as above
Sequence of BTK C481S (Q06187 whole entry C481S): as the sequence (Q06187 whole entry) above, with C481S counted along it

Take `COc1ccc(F)cc1C(=O)NCc1ccc(-c2nn([C@@H](C)C(F)(F)F)c(N)c2C(N)=O)cc1` [compound of Formula I, (S)-5-amino-3-(4-((5-fluoro-2-methoxybenzamido)methyl)phenyl)-1-(1,1,1-trifluoropropan-2-yl)-1H-pyrazole-4-carboxamide]: the concentration for half-maximal inhibition (IC50) was 3.2 ± 0.6 nM in data set [1]; 8.8 ± 1.8 nM in data set [2]; 8.2 nM in data set [4]; 0.95 nM in data set [5] (10 μM ATP, read-out: IC50); 3.15 nM in data set [5] (ATP at Km concentration, read-out: IC50 value); 2.33 nM in data set [7]. In data set [3], the “kinases other than BTK with Percent of Control (POC) values less than 50” value was “only eight of 371 kinases other than BTK”. Also, the kinetic solubility at 4 h in data set [6] (setting [8]) was 22 µg/mL; in data set [6] (setting [9]), 23 µg/mL; in data set [6] (setting [10]), 44 µg/mL. For the same compound, the kinetic solubility at 24 h was 24 µg/mL in data set [6] (setting [8]), 20 µg/mL in data set [6] (setting [9]) and 47 µg/mL in data set [6] (setting [10]).
